This passage reports TGI results from PubChem BioAssay (NCI).

Test systems include UACC-62 melanoma; MALME-3M melanoma; HCT-15 colon; EKVX NSCLC; OVCAR-3 ovarian; NCI-H522 lung; SK-MEL-2 melanoma; NCI-H460 lung; HOP-92 NSCLC; M14 melanoma; ACHN renal; MOLT-4 leukemia; TK-10 renal; SK-MEL-5 melanoma; MDA-MB-435.
What all share (assay): NCI tumour cell line growth inhibition, 48 h

Each structure is given as a SMILES string.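 Interpolation was linear, between the two tested concentrations surrounding the appropriate level; five concentrations were tested over 48 hours in 96-well plates. The concentration for full growth arrest is given as TGI.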

As for `O=C(/N=C/c1c(O)c2ccccc2oc1=O)Nc1ccccc1`, the TGI is more than 100 µM with UACC-62 melanoma; 94 µM in the experiment with MALME-3M melanoma; more than 100 µM in the experiment on HCT-15 colon; more than 100 µM in the experiment with EKVX NSCLC; more than 100 µM in the experiment on OVCAR-3 ovarian; more than 100 µM with NCI-H522 lung. Further, the TGI was 80.4 µM in the experiment on SK-MEL-2 melanoma; more than 100 µM with NCI-H460 lung; more than 100 µM in the experiment with HOP-92 NSCLC; more than 100 µM with M14 melanoma; more than 100 µM with ACHN renal; more than 100 µM with MOLT-4 leukemia. In addition, the TGI in the experiment on TK-10 renal and in the experiment on SK-MEL-5 melanoma was more than 100 µM throughout.

As for `COc1cc2c(cc1OC)C(C(CO)CO)N(CC(O)CCl)CC2` (stereo unspecified), the TGI with UACC-62 melanoma, in the experiment on MALME-3M melanoma, in the experiment with HCT-15 colon, in the experiment on EKVX NSCLC, in the experiment with OVCAR-3 ovarian and in the experiment with NCI-H522 lung was more than 100 µM each time. Moreover, the TGI in the experiment with SK-MEL-2 melanoma, in the experiment with NCI-H460 lung, in the experiment with HOP-92 NSCLC, with M14 melanoma, in the experiment on ACHN renal and in the experiment on MOLT-4 leukemia was more than 100 µM each time. Further, the TGI in the experiment with TK-10 renal and in the experiment on SK-MEL-5 melanoma was more than 100 µM throughout.

On to `CCOC(=O)c1cc(-c2cc(OC)c(OC)c([N+](=O)[O-])c2)c([N+](=O)[O-])n1C`, for which the TGI in the experiment on UACC-62 melanoma was more than 10 µM; with MALME-3M melanoma it was more than 10 µM; in the experiment with MDA-MB-435, 4.72 µM; in the experiment with HCT-15 colon, more than 10 µM; in the experiment on EKVX NSCLC, more than 10 µM; in the experiment on OVCAR-3 ovarian it was more than 10 µM. The TGI with NCI-H522 lung, with SK-MEL-2 melanoma, with NCI-H460 lung, in the experiment with HOP-92 NSCLC, with M14 melanoma and with ACHN renal was more than 10 µM throughout. The TGI with MOLT-4 leukemia and in the experiment with TK-10 renal was more than 10 µM in each case.

Consider `CCc1cc(Cc2cc(Cl)c(NC(=O)C(=O)C3NC(=O)NC3=O)c(CC)c2)cc(Cl)c1NC(=O)C(=O)C1NC(=O)NC1=O` (stereo unspecified), for which the TGI in the experiment with UACC-62 melanoma is more than 100 µM; in the experiment on MALME-3M melanoma, more than 100 µM; with HCT-15 colon it was 35.6 µM; in the experiment on EKVX NSCLC it was more than 100 µM; in the experiment on OVCAR-3 ovarian, more than 100 µM; in the experiment on SK-MEL-2 melanoma, more than 100 µM. The TGI with NCI-H460 lung, in the experiment on HOP-92 NSCLC, in the experiment with M14 melanoma, in the experiment on ACHN renal, with MOLT-4 leukemia and in the experiment with TK-10 renal was more than 100 µM each time. The compound also showed a TGI with SK-MEL-5 melanoma of more than 100 µM.

Take `CN(C)c1ccc(C(=C(c2ccc(N(C)C)cc2)c2ccc(N(C)C)cc2)c2ccc(N(C)C)cc2)cc1`: the TGI with UACC-62 melanoma amounted to 36.1 µM; with MALME-3M melanoma, 32.6 µM; in the experiment with HCT-15 colon, 32.7 µM; with EKVX NSCLC, 34.4 µM; with OVCAR-3 ovarian, 2.97 µM; with NCI-H522 lung, 1.12 µM. Also, the TGI in the experiment with SK-MEL-2 melanoma amounted to 28.5 µM; in the experiment with NCI-H460 lung, 32.3 µM; with M14 melanoma, 22 µM; in the experiment with ACHN renal it was 24.6 µM; with MOLT-4 leukemia, 41 µM; with TK-10 renal it was 31.5 µM. For the same compound, the TGI with SK-MEL-5 melanoma was 31.8 µM.

Regarding `Cc1c(Cl)c2ccccc2n1S(=O)(=O)c1ccccc1`, the TGI in the experiment on UACC-62 melanoma was more than 100 µM; in the experiment on MALME-3M melanoma, more than 100 µM; in the experiment on HCT-15 colon, more than 100 µM; in the experiment with OVCAR-3 ovarian it was more than 100 µM; with NCI-H522 lung, 67.1 µM; with SK-MEL-2 melanoma, more than 100 µM. For the same compound, the TGI with NCI-H460 lung is more than 100 µM; in the experiment on HOP-92 NSCLC it was 54.2 µM; in the experiment with M14 melanoma, more than 100 µM; in the experiment on ACHN renal it was more than 100 µM; in the experiment on MOLT-4 leukemia, more than 100 µM; with TK-10 renal, more than 100 µM. Further, the TGI with SK-MEL-5 melanoma is more than 100 µM.

`CN1CCCC2(CCCc3ccccc32)C1` (stereo unspecified): the TGI in the experiment on UACC-62 melanoma, in the experiment on MALME-3M melanoma, with HCT-15 colon, in the experiment with EKVX NSCLC, in the experiment with OVCAR-3 ovarian and in the experiment on NCI-H522 lung was more than 100 µM each time. The TGI in the experiment with SK-MEL-2 melanoma, in the experiment on NCI-H460 lung, with HOP-92 NSCLC, in the experiment on M14 melanoma, in the experiment on ACHN renal and in the experiment with MOLT-4 leukemia was more than 100 µM throughout. The TGI in the experiment on TK-10 renal and in the experiment with SK-MEL-5 melanoma was more than 100 µM each time.

Consider `CCOC(=O)C1(C/C=C(/C)Cl)CCCC1=O` (stereo unspecified), for which the TGI in the experiment on UACC-62 melanoma, in the experiment with MALME-3M melanoma, with HCT-15 colon, with EKVX NSCLC, in the experiment with OVCAR-3 ovarian and in the experiment with NCI-H522 lung was more than 100 µM in each case. The TGI with SK-MEL-2 melanoma, with NCI-H460 lung, in the experiment with M14 melanoma, in the experiment on ACHN renal, with MOLT-4 leukemia and in the experiment with TK-10 renal was more than 100 µM throughout. Also, in the experiment on SK-MEL-5 melanoma, the TGI was more than 100 µM.

In the case of `Clc1ccc(SC(/C=C/NNC2=NC(c3ccccc3)C(c3ccccc3)=NN2)c2ccccc2)cc1` (stereo unspecified), the TGI in the experiment with UACC-62 melanoma was 85.3 µM; with MALME-3M melanoma it was 39.8 µM; with HCT-15 colon, more than 100 µM; in the experiment with EKVX NSCLC it was more than 100 µM; in the experiment on OVCAR-3 ovarian, 60.5 µM; in the experiment on NCI-H522 lung it was 73.7 µM. For the same compound, the TGI with SK-MEL-2 melanoma is 40.7 µM; in the experiment with NCI-H460 lung, more than 100 µM; with HOP-92 NSCLC it was 32.6 µM; with M14 melanoma it was 46 µM; in the experiment on ACHN renal, more than 100 µM; with MOLT-4 leukemia, 38.4 µM. Moreover, the TGI in the experiment with TK-10 renal is more than 100 µM; in the experiment on SK-MEL-5 melanoma, 31.2 µM.

For `Cc1cccc2c(=O)c([Se]c3coc4c(C)cccc4c3=O)coc12`, the TGI is 33.1 µM with UACC-62 melanoma; 33.6 µM in the experiment on MALME-3M melanoma; 39.2 µM in the experiment on HCT-15 colon; 33.3 µM in the experiment with EKVX NSCLC; 65.6 µM in the experiment with OVCAR-3 ovarian; more than 100 µM with NCI-H522 lung. The TGI was 33.5 µM with SK-MEL-2 melanoma; 21.3 µM in the experiment on NCI-H460 lung; 40.5 µM with HOP-92 NSCLC; 30.3 µM in the experiment with M14 melanoma; 38.3 µM with ACHN renal; more than 100 µM in the experiment on MOLT-4 leukemia. Besides, the TGI in the experiment with TK-10 renal worked out at 69.7 µM; in the experiment with SK-MEL-5 melanoma, 32.7 µM.
